Key:
Assay in all cases: area under dose-response curve of surviving fraction (unscaled, Aref=0) (surviving fraction x log10(nM)); higher = more resistant
Details in all cases: exposure time: 5 days; dose range 0.5-1000 nM
[1] = compound: Cn1cc(C2=Nc3cc(NC(=O)C(N)C4CCCCC4)cc4c3C2=CNNC4=O)cn1
Method in brief: (§1)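 Inhibitor was applied to tumour cell lines at eight concentrations (0.5 to 1000 nM) for five days in 384-well plates. Luminescence from CellTiter-Glo, scaled to DMSO-only wells, gave surviving fractions in three screens per line, and these were fitted by 3-parameter logistic regression with the drc R package. The area under the curve is an unscaled activity area. Aref was 0, and dose was on a log10 scale.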

[2] = compound: CN(C)C/C=C/C(=O)Nc1cc2c(Nc3ccc(F)c(Cl)c3)ncnc2cc1O[C@H]1CCOC1 [AFATINIB]
Method in brief: as §1

[3] = compound: CCCCCCCCCCCCCCCC(=O)Nc1ccn([C@@H]2O[C@H](CO)[C@@H](O)[C@@H]2C#N)c(=O)n1 [SAPACITABINE]
Method in brief: as §1

[4] = compound: C=CC(=O)Nc1cc2c(Nc3ccc(F)c(Cl)c3)ncnc2cc1OCCCN1CCOCC1 [CANERTINIB]
Method in brief: as §1

| Test System | area under dose-response curve [1] | area under dose-response curve [2] | area under dose-response curve [3] | area under dose-response curve [4] |
| --- | --- | --- | --- | --- |
| 22RV1 PROSTATE | 2.97 | 3.06 | 2.46 | 3.32 |
| 93VU HEADNECK | 3.08 | 1.9 | 2.69 | 2.56 |
| A549 LUNG | – | 3.35 | 2.57 | 3.08 |
| ASKA SYNOVIAL | 2.3 | 3.14 | 2.18 | – |
| BT549 BREAST | 2.19 | 3.09 | 1.85 | 2.74 |
| C33A CERVIX | 2.75 | 2.23 | 2.35 | – |
| CAL51 BREAST | 2.86 | 3.19 | 2.32 | 3.08 |
| CAL72 BONE | 2.58 | 3.5 | 2.07 | – |
| CAL120 BREAST | 2.8 | 2.87 | 2.46 | 3.01 |
| CASKI CERVIX | 2.04 | 0.986 | 2.91 | 1.85 |
| CME SYNOVIAL | – | 4.36 | 1.45 | 3.18 |
| COLO320DM LARGE INTESTINE | 3.21 | 3.24 | 2.44 | 3.25 |
| G292 BONE | 2.19 | 3.06 | 2.32 | 3.18 |
| H23 LUNG | – | 1.57 | 2.6 | 1.77 |
| HCC38 BREAST | 1.69 | 3.94 | 2.32 | 3.55 |
| HCC70 BREAST | 2.23 | – | 2.57 | 3 |
| HCC202 BREAST | 2.24 | 1.39 | – | – |
| HCC1395 BREAST | 2.62 | 3.5 | 2.91 | 3.33 |
| HCC1806 BREAST | 2.07 | 2.28 | 1.25 | 2.12 |
| HCC1954 BREAST | 2.06 | 1.86 | 1.48 | 0.92 |
| HCT15 LARGE INTESTINE | 3.4 | 3.26 | 1.34 | 2.73 |
| HELA CERVIX | 3.79 | 3.69 | 2.94 | 3.11 |

| Test System | area under dose-response curve [1] | area under dose-response curve [2] | area under dose-response curve [3] | area under dose-response curve [4] |
| --- | --- | --- | --- | --- |
| HMT3552 BREAST | – | – | 2.99 | 2.58 |
| HOS BONE | 2.35 | 3.28 | 2.63 | 3.14 |
| HOSMNG BONE | 3.09 | 3.23 | 3.25 | 3.4 |
| HS578T BREAST | 2.39 | – | 2.8 | 2.92 |
| HT1080 SOFT TISSUE | 2.6 | 3.25 | 2.33 | 3.29 |
| HU09 BONE | 2.19 | 3.05 | 2.37 | 3.15 |
| JURKAT HAEMATOPOIETIC AND LYMPHOID TISSUE | 2.23 | 3.13 | 1.09 | 3.29 |
| KPD BONE | 2.3 | 3.02 | 2.81 | 3.06 |
| LNCAP PROSTATE | 3.06 | 3.17 | 2.15 | – |
| MCF7 BREAST | 2.85 | 3.17 | 2.58 | 2.76 |
| MDAMB134 BREAST | 2.44 | 3.16 | 2.57 | 2.36 |
| MDAMB157 BREAST | 2.88 | 3.17 | 2.24 | 2.78 |
| MDAMB231 BREAST | 2.84 | 3.07 | 2.9 | 3.15 |
| MDAMB361 BREAST | 1.88 | 2.35 | 2.49 | 2.35 |
| MDAMB436 BREAST | 2.31 | 2.99 | 2.05 | 2.86 |
| MDAMB453 BREAST | 2.33 | 2.7 | 3.1 | 3.19 |
| MDAMB468 BREAST | 2.58 | 2.26 | 2.27 | 2.41 |
| MG63 BONE | 2.46 | 3.27 | 2.19 | 3.24 |
| MHM BONE | 2.98 | 3.27 | 2.69 | 3.2 |
| NCIH441 LUNG | 2.85 | 3.02 | 2.28 | 3.05 |
| NOS1 BONE | 2.73 | 2.86 | 2.87 | 3.08 |
| NY BONE | 2.01 | 3.1 | 1.91 | 3.13 |

| Test System | area under dose-response curve [1] | area under dose-response curve [2] | area under dose-response curve [3] | area under dose-response curve [4] |
| --- | --- | --- | --- | --- |
| OS25HAL BONE | 2.71 | 3.28 | 2.79 | 3.13 |
| OSHN BONE | 2.6 | 3.58 | 2.83 | 3.16 |
| PCI30 HEADNECK | 2.65 | 1.61 | 2.94 | 2.01 |
| SAOS2 BONE | 2.52 | 3.04 | 2.19 | 2.87 |
| SCC003 HEADNECK | 3.25 | 2.48 | 2.85 | 2.54 |
| SCC36 HEADNECK | 2.54 | 1.53 | 2.66 | 2.1 |
| SCC90 HEADNECK | 2.53 | 1.7 | 3.07 | 2.13 |
| SG27 HEADNECK | 3.1 | 3.13 | – | 3.27 |
| SG43 HEADNECK | 3.31 | 1.3 | 3.5 | 1.92 |
| SIHA CERVIX | 3.22 | 3.2 | 3.12 | 2.92 |
| SJSA1 BONE | 3.02 | 3.26 | 4.77 | – |
| SKBR3 BREAST | 2.39 | 0.986 | 2.23 | 1.75 |
| SUM44 BREAST | 1.84 | 3.18 | 2.51 | 2.78 |
| SUM159 BREAST | 3.54 | 3.13 | 2.81 | 3.11 |
| SYO1 SYNOVIAL | 1.84 | 2.96 | 1.23 | 2.48 |
| T47D BREAST | 3.35 | 3.42 | 2.9 | 3.01 |
| U2OS BONE | 2.85 | 3.19 | 2.92 | 3.13 |
| VCAP PROSTATE | 2.82 | 3.11 | 3.11 | 3.15 |
| VP229 BREAST | 3.5 | 1.7 | 2.46 | 1.58 |
| YAMATO SYNOVIAL | 2.58 | 4.09 | 1.68 | 3.14 |
| ZR751 BREAST | 2.71 | 2.83 | 2.9 | 2.8 |
